The experiment has as its system BDF1 mice, colon carcinoma 38 sc, T/C %. The experiment is described as follows: NCI In Vivo Anticancer Drug Screen. Data for tumor model Colon Carcinoma 38 (subcutaneous) in B6D2F1 (BDF1) mice. The settings on record: endpoint: median tumor weight (est.), higher = larger tumour. As to the method:
The antitumor activity of compounds was measured in mice bearing transplantable tumors. Survival or tumor size were measured and the results are expressed as the measurement made in the treated group (T) divided by the measurement made in the vehicle treated control group (C). The tumor model used in this assay is Colon Carcinoma 38 (subcutaneous) in B6D2F1 (BDF1) mice

Setting [1] is: dose: 12.5 mg/kg/injection, schedule: Q07DX002 (ip), vehicle: Klucel (hydroxypropylcellulose) (HPC).
Setting [2] is: dose: 200.0 mg/kg/injection, schedule: Q07DX002 (ip), vehicle: Klucel (hydroxypropylcellulose) (HPC).
Where [3] appears, read: dose: 100.0 mg/kg/injection, schedule: Q07DX002 (ip), vehicle: Klucel (hydroxypropylcellulose) (HPC).
Where [4] appears, read: dose: 12.5 mg/kg/injection, schedule: Q07DX002 (ip), vehicle: saline with Tween-80.
Setting [5] is: dose: 25.0 mg/kg/injection, schedule: Q07DX002 (ip), vehicle: saline with Tween-80.
Where [6] appears, read: dose: 50.0 mg/kg/injection, schedule: Q07DX002 (ip), vehicle: Klucel (hydroxypropylcellulose) (HPC).
[7] abbreviates: dose: 400.0 mg/kg/injection, schedule: Q07DX002 (ip), vehicle: Klucel (hydroxypropylcellulose) (HPC).
Where [8] appears, read: dose: 100.0 mg/kg/injection, schedule: Q07DX002 (ip), vehicle: saline with Tween-80.
Where [9] appears, read: dose: 200.0 mg/kg/injection, schedule: Q07DX002 (ip), vehicle: saline with Tween-80.
Setting [10] is: dose: 400.0 mg/kg/injection, schedule: Q07DX002 (ip), vehicle: saline with Tween-80.
[11] abbreviates: dose: 50.0 mg/kg/injection, schedule: Q07DX002 (ip), vehicle: distilled water + Tween-80.
Where [12] appears, read: dose: 50.0 mg/kg/injection, schedule: Q07DX002 (ip), vehicle: saline with Tween-80.
The mark [13] stands for this setting: dose: 25.0 mg/kg/injection, schedule: Q07DX002 (ip), vehicle: Klucel (hydroxypropylcellulose) (HPC).

Molecules are shown by their SMILES. Values joined by “and” are separate entries in the source; they are usually repeats but may differ in a detail not shown here. Equal values may be shown once. Records with an inconclusive call do not appear.

As to `Cc1c(N)nc(C(CC(N)=O)NCC(N)C(N)=O)nc1C(=O)NC(C(=O)NC(C)C(O)C(C)C(=O)NC(C(=O)NCCc1nc(-c2nc(C(=O)NCCCNCCCc3ccccn3)cs2)cs1)C(C)O)C(OC1OC(CO)C(O)C(O)C1OC1OC(CO)C(O)C(OC(N)=O)C1O)c1cnc[nH]1` (centres undefined), the T/C runs as follows: (dose: 0.1 mg/kg/injection, schedule: Q07DX003 (ip), vehicle: saline) 96 % of control; (dose: 0.2 mg/kg/injection, schedule: Q07DX003 (ip), vehicle: saline) 67 % of control; (dose: 0.4 mg/kg/injection, schedule: Q07DX002 (ip), vehicle: water) 81 % of control; (dose: 0.4 mg/kg/injection, schedule: Q07DX003 (ip), vehicle: saline) 72 % of control; (dose: 0.8 mg/kg/injection, schedule: Q07DX002 (ip), vehicle: water) 66 % of control; (dose: 0.8 mg/kg/injection, schedule: Q07DX003 (ip), vehicle: saline) 105 % of control. Besides, the T/C runs as follows: (dose: 1.6 mg/kg/injection, schedule: Q07DX002 (ip), vehicle: water) 75 % of control; (dose: 1.6 mg/kg/injection, schedule: Q07DX003 (ip), vehicle: saline) 71 % of control; (dose: 3.2 mg/kg/injection, schedule: Q07DX002 (ip), vehicle: water) 72 % of control; (dose: 3.2 mg/kg/injection, schedule: Q07DX003 (ip), vehicle: saline) 60 % of control; (dose: 6.25 mg/kg/injection, schedule: Q07DX002 (ip), vehicle: saline) 70 % of control; (dose: 6.4 mg/kg/injection, schedule: Q07DX002 (ip), vehicle: water) 41 % of control. For the same compound, the T/C by setting is: (dose: 12.8 mg/kg/injection, schedule: Q07DX002 (ip), vehicle: water) 45 % of control; (dose: 25.0 mg/kg/injection, schedule: Q07DX002 (ip), vehicle: saline) 32 % of control and 33 % of control; (dose: 100.0 mg/kg/injection, schedule: Q07DX002 (ip), vehicle: saline) 29 % of control.

Consider `CC(=O)[O][Pb]([O]C(C)=O)([c]1ccccc1)[c]1ccccc1`, for which the T/C under setting [1] was 216 % of control and the T/C under setting [2] is 72 % of control.

For `Cc1ccc(NCCN(C)C)c2c(=O)c3cc(O)ccc3sc12`, the T/C runs as follows: under setting [3], 42 % of control and 48 % of control; under setting [2], 17 % of control.

With `O=[n+]1c2ccccc2n([O-])c2ccccc21.[Cl][Ni][Cl]`, the T/C runs as follows: (dose: 3.12 mg/kg/injection, schedule: Q07DX002 (ip), vehicle: saline with Tween-80) 89 % of control; (dose: 6.25 mg/kg/injection, schedule: Q07DX002 (ip), vehicle: saline with Tween-80) 111 % of control; under setting [4], 89 % of control; under setting [5], 97 % of control.

On to `Clc1ccc(C2SC=Cc3ccccc32)cc1` (centres undefined), for which the T/C runs as follows: under setting [6], 56 % of control; under setting [3], 47 % of control; under setting [2], 57 % of control; under setting [7], 93 % of control.

For `Clc1ccc(C(c2ccccc2Cl)C(Cl)Cl)cc1` (centres undefined), the T/C (dose: 25.0 mg/kg/injection, schedule: Q07DX003 (ip), vehicle: saline with Tween-80) is 39 % of control; the T/C (dose: 50.0 mg/kg/injection, schedule: Q07DX003 (ip), vehicle: saline with Tween-80) is 59 % of control; the T/C (dose: 100.0 mg/kg/injection, schedule: Q07DX003 (ip), vehicle: saline with Tween-80) is 80 % of control; the T/C (dose: 200.0 mg/kg/injection, schedule: Q07DX003 (ip), vehicle: saline with Tween-80) is 63 % of control; the T/C (dose: 400.0 mg/kg/injection, schedule: Q07DX003 (ip), vehicle: saline with Tween-80) is 95 % of control.

Take `O=C(N/N=C\c1cc(Br)cc(Br)c1O)N/N=C/c1cc(Br)cc(Br)c1O`: the T/C runs as follows: under setting [4], 119 % of control; under setting [8], 90 % of control; under setting [9], 102 % of control; under setting [10], 92 % of control.

For the compound `Nc1cc(Cl)c2[nH]cnc2n1`, the T/C by setting is: (dose: 12.5 mg/kg/injection, schedule: Q07DX002 (ip), vehicle: water) 86 % of control; (dose: 25.0 mg/kg/injection, schedule: Q07DX002 (ip), vehicle: water) 119 % of control; under setting [11], 99 % of control; (dose: 50.0 mg/kg/injection, schedule: Q07DX002 (ip), vehicle: water) 82 % of control; (dose: 100.0 mg/kg/injection, schedule: Q07DX002 (ip), vehicle: distilled water + Tween-80) 76 % of control; (dose: 100.0 mg/kg/injection, schedule: Q07DX002 (ip), vehicle: water) 101 % of control. Moreover, the T/C runs as follows: (dose: 200.0 mg/kg/injection, schedule: Q07DX002 (ip), vehicle: distilled water + Tween-80) 108 % of control; (dose: 200.0 mg/kg/injection, schedule: Q07DX002 (ip), vehicle: water) 81 % of control; (dose: 400.0 mg/kg/injection, schedule: Q07DX002 (ip), vehicle: water) 81 % of control.

As for `CS(=O)(=O)[O-].CS(=O)(=O)[O-].NC1CCCCC1N.[Pt+4]` (centres undefined), the T/C by setting is: (dose: 0.31 mg/kg/injection, schedule: Q07DX002 (ip), vehicle: dextrose) 71 % of control; (dose: 0.62 mg/kg/injection, schedule: Q07DX002 (ip), vehicle: dextrose) 58 % of control and 82 % of control; (dose: 1.25 mg/kg/injection, schedule: Q07DX002 (ip), vehicle: dextrose) 54 % of control and 56 % of control; (dose: 2.5 mg/kg/injection, schedule: Q07DX002 (ip), vehicle: dextrose) 35 % of control and 45 % of control; (dose: 5.0 mg/kg/injection, schedule: Q07DX002 (ip), vehicle: dextrose) 39 % of control; (dose: 10.0 mg/kg/injection, schedule: Q07DX002 (ip), vehicle: dextrose) 19 % of control.

For `NC(Cc1ccc(N(CCCl)Cc2ccccc2)cc1)C(=O)O` (centres undefined), the T/C is 69 % of control and 90 % of control (dose: 3.12 mg/kg/injection, schedule: Q07DX002 (ip), vehicle: distilled water + Tween-80); 108 % of control (dose: 6.25 mg/kg/injection, schedule: Q07DX002 (ip), vehicle: distilled water + Tween-80); 51 % of control and 70 % of control (dose: 12.5 mg/kg/injection, schedule: Q07DX002 (ip), vehicle: distilled water + Tween-80); 109 % of control and 108 % of control (dose: 25.0 mg/kg/injection, schedule: Q07DX002 (ip), vehicle: distilled water + Tween-80); 72 % of control and 92 % of control under setting [11].

For the compound `CC1(C)OC1CS(=O)c1ccccc1` (centres undefined), the T/C under setting [5] was 110 % of control; the T/C under setting [12] was 105 % of control; the T/C under setting [8] was 92 % of control; the T/C under setting [9] is 86 % of control; the T/C under setting [10] was 105 % of control; the T/C (dose: 800.0 mg/kg/injection, schedule: Q07DX002 (ip), vehicle: saline with Tween-80) was 76 % of control.

For `C[C@H]1C/C=C/[C@H]2[C@@H]3O[C@]3(C)[C@@H](C)[C@H]3[C@H](Cc4ccccc4)NC(=O)[C@]32OC(=O)O/C=C/[C@@](C)(O)C1=O`, the T/C is, setting by setting: (dose: 6.25 mg/kg/injection, schedule: Q07DX002 (ip), vehicle: Klucel (hydroxypropylcellulose) (HPC)) 79 % of control; under setting [1], 88 % of control.

Regarding `COC1C(CO)OC(n2cnc3c(=S)nc(N)[nH]c32)C1O` (centres undefined), the T/C is, setting by setting: under setting [1], 98 % of control; under setting [13], 74 % of control; under setting [6], 44 % of control; under setting [3], 118 % of control; under setting [2], 69 % of control; under setting [7], 44 % of control.

`C[Si](C)(CCl)N[Si](C)(C)CCl`: the T/C by setting is: under setting [12], 99 % of control; under setting [8], 100 % of control; under setting [10], 150 % of control.

`COc1ccc2ccccc2c1C1NC(=O)c2ccccc2N1` (centres undefined): the T/C runs as follows: under setting [13], 76 % of control; under setting [6], 93 % of control; under setting [3], 59 % of control; under setting [2], 52 % of control; under setting [7], 69 % of control; (dose: 800.0 mg/kg/injection, schedule: Q07DX002 (ip), vehicle: Klucel (hydroxypropylcellulose) (HPC)) 69 % of control.
